# Patent US6864363B2 (priority 2000, dated 2005)
# “And” between values parts separate entries of the source, which are not always exact repeats. Equal values may be shown once. Numbered stars: 1 amine (or outer) side, 2 acyl side, 3 side chain; on linkers, the order of the positions; unused ones are H or OH. Square brackets hold non-standard residues; d marks the D form. Peptide text beside a SMILES is read from it. * marks the point of attachment. Sta = CC(C)C[C@H](N)[C@@H](O)CC(=O)O; pNA = O=[N+]([O-])c1ccc(N*)cc1; Suc = O=C(CCC(=O)[*:2])[*:1]; Isovaleryl = CC(C)CC(=O)*; Cbz = O=C(OCc1ccccc1)*
# System: P. gingivalis DPP-7
# Assay: Kinetic analysis of p-nitroanilide substrate cleavage by DPP-7
# Format: biochemical, Porphyromonas gingivalis
# Details: 0.2 M HEPES, pH 7.8, 37° C.
# Procedure: Kinetic Analysis—Routinely, the dipeptidylpeptidase amidolytic activity was measured with H-Ala-Phe-pNA (1 mM) in 0.2 M HEPES, pH 7.8 at 37° C. The reaction was followed for specific time intervals in a thermostated ELISA reader (SpectraMax, Applied Biosystem) and the release of p-nitroaniline was monitored at 405 nm. Other p-nitroanilide substrates were used in the same manner. For inhibition studies, the enzyme was first preincubated with an inhibitor for 15 minutes at 37° C., substrate added, and residual activity recorded. The initial steady-state velocity (v0) was determined by continuous assay for the range of substrate concentrations (100 nM to 1 mM). Km and Vmax were determined by hyperbolic regression of the kinetic data using the software package Hyper Version 1.02 obtained from Dr. J. S. Easterby (University of Liverpool, UK).
# Substrate Specificity—Among several chromogenic substrates tested, only those with an aliphatic or an aromatic side chain residues in the second, penultimate position were rapidly hydrolyzed by DPP-7 (Table 2).
Molecule,Km [µM],Vmax
CC(N)C(=O)NC(C)C(=O)Nc1ccc([N+](=O)[O-])cc1.Cl (stereo not drawn) [H-Ala-Ala-pNA] (H-Ala-Ala-pNA; configuration not given here),313,129.65
C[C@H](N)C(=O)N[C@@H](Cc1ccccc1)C(=O)Nc1ccc([N+](=O)[O-])cc1 [H-Ala-Phe-pNA],441,170.06
NCC(=O)NC(Cc1ccccc1)C(=O)Nc1ccc([N+](=O)[O-])cc1 (stereo not drawn) [H-Gly-Phe-pNA],256,54.54

# Same assay, conditions: p-nitroanilide substrates
row,Molecule,hydrolysis of chromogenic substrate by DPP-7
1,NC(N)=NCCCC(NC(=O)c1ccccc1)C(=O)Nc1ccc([N+](=O)[O-])cc1 (racemic) [Nα-benzoyl-DL-arginine-pNA],none of these was hydrolysed
2,C[C@H](N)C(=O)N[C@@H](C)C(=O)N[C@@H](Cc1ccccc1)C(=O)Nc1ccc([N+](=O)[O-])cc1 [H-Ala-Ala-Phe-pNA] (H-Ala-Ala-Phe-pNA),none of these was hydrolysed
3,C[C@H](N)C(=O)NCC(=O)N[C@@H](CCCNC(=N)N)C(=O)Nc1ccc([N+](=O)[O-])cc1 [H-Ala-Gly-Arg-pNA] (H-Ala-Gly-Arg-pNA),none of these was hydrolysed
4,C[C@H](N)C(=O)NCC(=O)Nc1ccc([N+](=O)[O-])cc1 [H-Ala-Gly-pNA] (H-Ala-Gly-pNA),none of these was hydrolysed
5,C[C@H](N)C(=O)N[C@@H](Cc1ccccc1)C(=O)N1CCC[C@H]1C(=O)Nc1ccc([N+](=O)[O-])cc1 [H-Ala-Phe-Pro-pNA] (H-Ala-Phe-Pro-pNA),none of these was hydrolysed
6,C[C@H](N)C(=O)N1CCC[C@H]1C(=O)Nc1ccc([N+](=O)[O-])cc1 [H-Ala-Pro-pNA] (H-Ala-Pro-pNA),none of these was hydrolysed
7,C[C@H](N)C(=O)Nc1ccc([N+](=O)[O-])cc1 [H-Ala-pNA],none of these was hydrolysed
8,NCC(=O)N[C@@H](CCCN=C(N)N)C(=O)Nc1ccc([N+](=O)[O-])cc1 [H-Gly-Arg-pNA] (H-Gly-Arg-pNA),none of these was hydrolysed
9,NCC(=O)N[C@@H](CCC(=O)O)C(=O)Nc1ccc([N+](=O)[O-])cc1 [H-Gly-Glu-pNA] (H-Gly-Glu-pNA),none of these was hydrolysed
10,NCC(=O)NCC(=O)Nc1ccc([N+](=O)[O-])cc1 [H-Gly-Gly-pNA] (H-Gly-Gly-pNA),none of these was hydrolysed
11,NCCCC[C@H](NC(=O)CN)C(=O)Nc1ccc([N+](=O)[O-])cc1 [H-Gly-Lys-pNA] (H-Gly-Lys-pNA),none of these was hydrolysed
12,NCC(=O)Nc1ccc([N+](=O)[O-])cc1 [H-Gly-pNA],none of these was hydrolysed
13,CC[C@H](C)[C@H](N)C(=O)Nc1ccc([N+](=O)[O-])cc1 [H-Ile-pNA],none of these was hydrolysed
14,CC(C)C[C@H](N)C(=O)N[C@H](C(=O)N[C@@H](CCCNC(=N)N)C(=O)Nc1ccc([N+](=O)[O-])cc1)[C@@H](C)O [H-Leu-Thr-Arg-pNA] (H-Leu-Thr-Arg-pNA),none of these was hydrolysed
15,CC(C)C[C@H](N)C(=O)Nc1ccc([N+](=O)[O-])cc1 [H-Leu-pNA],none of these was hydrolysed
16,Br.Br.NCCCC[C@H](N)C(=O)Nc1ccc([N+](=O)[O-])cc1 [H-Lys-pNA],none of these was hydrolysed

row,Molecule,hydrolysis of chromogenic substrate by DPP-7
1,N[C@@H](Cc1ccccc1)C(=O)Nc1ccc([N+](=O)[O-])cc1 [H-Phe-pNA],none of these was hydrolysed
2,C[C@H](NC(=O)CCC(=O)O)C(=O)N[C@@H](C)C(=O)N1CCC[C@H]1C(=O)N[C@@H](CCC(=O)O)C(=O)Nc1ccc([N+](=O)[O-])cc1 [N-suc-Ala-Ala-Pro-Glu-pNA] (Suc-AAPE-pNA),none of these was hydrolysed
3,CC(C)C[C@H](NC(=O)[C@@H]1CCCN1C(=O)[C@H](C)NC(=O)[C@H](C)NC(=O)CCC(=O)O)C(=O)Nc1ccc([N+](=O)[O-])cc1 [N-suc-Ala-Ala-Pro-Leu-pNA] (Suc-AAPL-pNA),none of these was hydrolysed
4,CC(C)[C@H](NC(=O)[C@H](C)NC(=O)[C@H](C)NC(=O)CCC(=O)O)C(=O)N[C@@H](C)C(=O)Nc1ccc([N+](=O)[O-])cc1 [N-suc-Ala-Ala-Val-Ala-pNA] (Suc-AAVA-pNA),none of these was hydrolysed
5,C[C@H](NC(=O)CCC(=O)O)C(=O)N[C@@H](C)C(=O)Nc1ccc([N+](=O)[O-])cc1 [N-suc-Ala-Ala-pNA] (Suc-Ala-Ala-pNA),none of these was hydrolysed
6,C[C@H](NC(=O)OCc1ccccc1)C(=O)N[C@@H](C)C(=O)Nc1ccc([N+](=O)[O-])cc1 [Z-Ala-Ala-pNA] (Cbz-Ala-Ala-pNA),none of these was hydrolysed
7,N=C(N)NCCC[C@H](NC(=O)OCc1ccccc1)C(=O)Nc1ccc([N+](=O)[O-])cc1 [Z-Arg-pNA],none of these was hydrolysed
8,O=C(O)CC[C@H](NC(=O)OCc1ccccc1)C(=O)N[C@@H](CCC(=O)O)C(=O)Nc1ccc([N+](=O)[O-])cc1 [Z-Glu-Glu-pNA] (Cbz-Glu-Glu-pNA),none of these was hydrolysed
9,CC(C)C[C@H](NC(=O)OCc1ccccc1)C(=O)N[C@@H](CC(C)C)C(=O)N[C@@H](CCC(=O)O)C(=O)Nc1ccc([N+](=O)[O-])cc1 [Z-Leu-Leu-Glu-pNA] (Cbz-Leu-Leu-Glu-pNA),none of these was hydrolysed
10,N=C(N)NCCC[C@H](NC(=O)[C@H](CCCCN)NC(=O)OCc1ccccc1)C(=O)Nc1ccc([N+](=O)[O-])cc1 [Z-Lys-Arg-pNA] (Cbz-Lys-Arg-pNA),none of these was hydrolysed
11,NCCCC[C@H](NC(=O)OCc1ccccc1)C(=O)Nc1ccc([N+](=O)[O-])cc1 [Z-Lys-pNA],none of these was hydrolysed
12,NC(N)=NCCC[C@H](NC(=O)[C@H](Cc1ccccc1)NC(=O)OCc1ccccc1)C(=O)Nc1ccc([N+](=O)[O-])cc1 [Z-Phe-Arg-pNA] (Cbz-Phe-Arg-pNA),none of these was hydrolysed
13,CC(C)[C@H](NC(=O)[C@H](Cc1ccccc1)NC(=O)OCc1ccccc1)C(=O)N[C@@H](CCCNC(=N)N)C(=O)Nc1ccc([N+](=O)[O-])cc1 [Z-Phe-Val-Arg-pNA] (Cbz-Phe-Val-Arg-pNA),none of these was hydrolysed
14,NCCCC[C@H](NC(=O)[C@H](Cc1ccc(O)cc1)NC(=O)OCc1ccccc1)C(=O)N[C@@H](CCCN=C(N)N)C(=O)Nc1ccc([N+](=O)[O-])cc1 [Z-Tyr-Lys-Arg-pNA] (Cbz-Tyr-Lys-Arg-pNA),none of these was hydrolysed
15,N-met-Ala-Pro-Val-pNA,none of these was hydrolysed

# System: P. gingivalis DPP-7
# Assay: not given
# Format: biochemical, Porphyromonas gingivalis
# Details: not given
Molecule,% of residual activity,inactivation of / influence on DPP-7 activity (in words)
"c1cnc2c(c1)ccc1cccnc12 [1,10-orthophenanthroline]",98%,did not influence its activity
"O=c1oc(Cl)c(Cl)c2ccccc12 [3,4-dichloroisocoumarin]",0%,inactivated
C[C@H](N)C(=O)NCC(=O)O [Ala-Gly] (H-Ala-Gly-OH),96%,–
NC(N)=NCCC[C@H](N)C(=O)NCC(=O)O [Arg-Gly] (H-Arg-Gly-OH),84%,–
NC(N)=NCCC[C@H](N)C(=O)N[C@@H](Cc1ccccc1)C(=O)O [Arg-Phe],69%,–
N[C@@H](CS)C(=O)O [Cysteine],90%,–
O=C(O)CN(CCN(CC(=O)O)CC(=O)O)CC(=O)O [EDTA],90%,did not influence its activity
C[C@H](NC(=O)CN)C(=O)O [Gly-Ala] (H-Gly-Ala-OH),102%,–
O=C(O)CI [Iodoacetic acid],102%,not
CC(=O)N[C@@H](CC(C)C)C(=O)N[C@@H](CC(C)C)C(=O)N[C@H](C=O)CCCNC(=N)N [Leupeptin],107%,–
NCCCC[C@H](N)C(=O)NCC(=O)O [Lys-Gly] (H-Lys-Gly-OH),96%,–
"Cl.NCCc1ccc(S(=O)(=O)F)cc1 [PEFABLOCK, 4-(2-aminoethyl)-benzenesulfonyl fluoride hydrochloride]",1%,inactivated
CC(C)CC(=O)N[C@H](C(=O)N[C@H](C(=O)N[C@@H](CC(C)C)[C@@H](O)CC(=O)N[C@@H](C)C(=O)N[C@@H](CC(C)C)[C@@H](O)CC(=O)O)C(C)C)C(C)C [Pepstatin] (Isovaleryl-VV[Sta]A[Sta]-OH),127%,–
CCCCCCCCCCCCOS(=O)(=O)[O-].[Na+] [SDS],–,not sensitive to inactivation
Aprotinin,128%,–
Triton X-100,144% and 103% and 94%,not sensitive to inactivation
α1-proteinase inhibitor: human plasma inhibitor,–,did not effect enzyme activity
α2-macroglobulin: human plasma inhibitor,–,did not effect enzyme activity
